As usually defined, the IC50 is the midpoint of a concentration-inhibition curve.

The structures appear in SMILES notation. Some results are limits rather than exact numbers.

The source of these data is PMC11661381, “Covalent-fragment screening identifies selective inhibitors of multiple Staphylococcus aureus serine hydrolases important for growth and biofilm formation” (Research Square, 2024).

The target in assay [1] is T1, recombinant FphE (rFphE) (Staphylococcus aureus, UniProt Q2FDS6).
T1 construct: otherwise full-length FphE (Uniprot ID Q2FDS6) and FphH (A0A0H2XJL0) proteins; His6 (3C-cleavable, pETNKI-his-3C-LIC vector) (N); made in house; E. coli is inferred from the pET28a-type vector, IPTG induction and LB/kanamycin
T1 sequence (Q2FDS6 1-276): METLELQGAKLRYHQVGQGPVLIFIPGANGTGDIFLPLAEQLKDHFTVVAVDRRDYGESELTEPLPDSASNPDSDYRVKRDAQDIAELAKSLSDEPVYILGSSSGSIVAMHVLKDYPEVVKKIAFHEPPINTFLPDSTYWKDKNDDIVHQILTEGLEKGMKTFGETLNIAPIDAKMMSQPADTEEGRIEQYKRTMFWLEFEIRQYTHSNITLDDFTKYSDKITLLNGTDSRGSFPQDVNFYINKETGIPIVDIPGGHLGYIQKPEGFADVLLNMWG
Nature of the assay: biochemical. The note with it: IC50 rFphE, value in nM. As to the method: Fluorogenic substrate assays were performed as previously described[9],[11],[12]. […] Turnover rates in the linear phase of the reaction (10–20 min) were calculated using GraphPad prism 10.0 software as RFU/min. Rates were normalized by subtracting background hydrolysis rates measured for each substrate in reaction buffer in the absence of protein.
For the screening, 8 μL of enzyme solution was pipetted into the assay plates containing 50 nL compound and allowed to incubate for one hour at room temperature. […] For four-point dose response plates, 2.5, 10, 25, 50 nL droplets were transferred to get […], 10, 25, 50 μM compound concentrations in the 384 well plates again using an Echo acoustic liquid handler as above. […] Calculations were done with GraphPad Prism 10.0 software. […] IC50 values were derived from the fitted curve.

The target in assay [2] is T2, rFphH (Staphylococcus aureus, UniProt A0A0H2XJL0).
T2 construct: otherwise full-length FphE (Uniprot ID Q2FDS6) and FphH (A0A0H2XJL0) proteins; His6 (3C-cleavable, pETNKI-his-3C-LIC vector) (N); made in house; E. coli is inferred from the pET28a-type vector, IPTG induction and LB/kanamycin
T2 sequence (A0A0H2XJL0 1-246): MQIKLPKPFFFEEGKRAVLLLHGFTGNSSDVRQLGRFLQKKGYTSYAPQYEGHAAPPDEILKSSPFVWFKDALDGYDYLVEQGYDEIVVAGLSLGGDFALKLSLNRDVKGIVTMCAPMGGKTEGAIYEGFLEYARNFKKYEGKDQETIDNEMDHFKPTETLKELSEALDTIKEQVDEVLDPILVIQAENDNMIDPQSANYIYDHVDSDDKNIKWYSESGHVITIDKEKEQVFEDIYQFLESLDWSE
As to the kind of experiment: FP-Cy5 active site labeling of recombinant protein, rFphH. Format: binding. As to conditions: recombinant protein. How it is done:
For activity-based protein labeling experiments, 500 nM of rFphB, rFphE and rFphH in 1X PBS and 0.1% Triton–X were preincubated with different concentrations of inhibitors or DMSO for 2hr at room temperature, followed by adding 300 nM of fluorophosphonate (FP) alkyne and incubated for 30 min at room temperature. Next, 20 μL of the reaction volume were mixed with 2.16 μL of freshly prepared click mix (0.5 μL of 50 mM CuSO4 in H2O, 1.16 μL of 100 mM BTTAA in DMSO, and 0.5 μL of N3-Cy5 in DMSO) and 1.16 μL of 300 mM sodium ascorbate solution in H2O. Samples were incubated at 37°C for 30 min, boiled in SDS loading buffer and analyzed by SDS–PAGE. Cy5 fluorescence was imaged using the Cy5 channel on a Typhoon 9410 Imager (Amersham Biosciences).

For assay [3], the system named is S. aureus wild type and fph transposon mutants. Nature of the assay: Bacterial growth inhibition assay, S. aureus. The assay is classed as cell-based, Staphylococcus aureus. As to conditions: 1–100 μM. How it is done: (§1) Bacteria were streaked from glycerol stocks onto agar plates and grown overnight at 37°C. A single colony was inoculated in either Tryptic Soy Broth (TSB; Sigma-Aldrich, St. Louis, MO; used for most species) or Bacto Brain Heart Infusion (BHI; Becton, Dickinson, and Company, Franklin Lakes, NJ; used for L. monocytogenes and S. pyogenes) and grown at 37°C shaking until mid-exponential phase (OD600 = 0.5), then diluted 1:10 in cation-adjusted Mueller Hinton Broth (MHB2, Millipore Sigma, Bedford, MA; used for most species) or BHI (for L. monocytogenes and S. pyogenes). 15 μl of this dilution was added to 135 μl of MHB2 or BHI in a flat-bottom clear 96-well plate for a starting inoculum of ~ 5 × 10^5 CFU/ml.
For bacterial growth inhibition assay, wild-type S. aureus and transposon mutants (fphB::Tn, fphE::Tn and fphH::Tn) were grown with compounds at final concentrations ranging from 1–100 μM and compared to growth in media with an equivalent percentage of DMSO. Each condition was plated as technical duplicates. The plate was incubated at 37°C with shaking every 15 minutes followed by measurement of OD600 for 14 hr. All growth curves were repeated at least twice and analyzed in GraphPad Prism 10.0 software. For bacterial resistance analysis, overnight culture of S. aureus Newman was diluted to an OD600 of 0.01 in MHB. This was followed by pretreatment with 20 μM N34 or equivalent DMSO volume as control. The pretreatment was allowed to proceed for 3 hr before initiating treatment with different concentrations of the test antibiotics (Table S5). The cultures were incubated overnight at 37°C, 5% CO2 before their optical density was read. The EC50 of the antibiotics against the bacteria in the presence or absence of N34 were determined by fitting the normalized data into a four-parameter logistic model in GraphPad Prism 10.0 software.

Assay [4] concerns Pseudomonas aeruginosa. Nature of the assay: Bacterial growth inhibition assay, P. aeruginosa. The assay is classed as cell-based. As to the method:
as §1
For bacterial growth inhibition assay, wild-type S. aureus and transposon mutants (fphB::Tn, fphE::Tn and fphH::Tn) were grown with compounds at final concentrations ranging from 1–100 μM and compared to growth in media with an equivalent percentage of DMSO. […] All growth curves were repeated at least twice and analyzed in GraphPad Prism 10.0 software. […] The cultures were incubated overnight at 37°C, 5% CO2 before their optical density was read. The EC50 of the antibiotics against the bacteria in the presence or absence of N34 were determined by fitting the normalized data into a four-parameter logistic model in GraphPad Prism 10.0 software.

Take `OB(O)c1csc2ccccc12` [Z27, Benzo[b]thiophen-3-ylboronic acid]: in assay [1], the IC50 came out at 50 nM. Also, in assay [2], the “concentration inhibiting FP-Cy5 labeling of rFphH” value was above 50 µM. Moreover, the “effect on S. aureus growth (in words)” value in assay [3] was “reduced growth for only the fphE mutant”. The “growth defect (in words)” value in assay [4] is “no significant growth defect”.
